{
  "source": "paper PMC12661400",
  "about": "“Oral bioavailable ITRI-148 degrades androgen receptor variants and overcomes antiandrogen resistance in advanced prostate cancer” (Neoplasia (New York, N.Y.), 2025)",
  "key": {"VCaP xenografts": {"tested_on": "VCaP xenografts", "assay": "Castrated VCaP xenograft study", "format": "in vivo", "settings": "for tumor growth inhibition (TGI): castrated mice", "description": "Immunodifficient male CB-17 SCID mice (CB17/Icr-Prkdc^scid/IcrIcoCrlBltw) and NOD SCID mice (NOD.CB17-Prkdc^scid/NCrCrlBltw) mice at four to six weeks of age were purchased from BioLASCO Taiwan Co., Ilan, Taiwan. All mice were housed in conventional cages in the AAALAC Full Accreditation (2011) in Industrial Technology Research Institute and were allowed to acclimatize and recover from shipping-related stress for one week prior to the study. The health of the mice was monitored by daily observations. Animals were kept in rooms at temperature of 22–26°C with 40–70 % humidity, positive pressure, 60 % air recirculation, ventilation rate 15–20 changes per hour, and a controlled light-dark cycle (12–12 hours). The order and location of each animal cage was randomly assigned to minimize potential confounders. CWR22Rv1 cells (5 × 10^6) were suspended in 100 μL of PBS with 30 % Matrigel and subcutaneously implanted into the right flank of male CB-17 SCID mice. Tumors were measured with calipers, and tumor size was calculated as follows: tumor volume (V) = (L × S^2)/2 (L, longest diameter, mm; S, shortest diameter, mm). When mean tumor volume reached 150–200 mm^3, the mice were randomly assigned into indicated groups (n = 5-6/ group) and the day of initiating treatments was assigned as day 0. VCaP cells (5 × 10⁶) suspended in 50 % Matrigel were subcutaneously implanted into male NOD SCID mice. Once tumors reached approximately 250 mm³, castration surgery was performed. After tumor regression and subsequent regrowth to around 250 mm³, treatment with ITRI-148 was initiated. Oral (PO) gavage was used for the drug administration, including vehicle control and ITRI-148 treatments (7.5 mg/kg, 15 mg/kg, 30 mg/kg, or 60 mg/kg, BID). Tumor size and body weight of the animals were monitored and recorded two to three times per week. Mice were sacrificed when one of the tumor reached over 1000 mm^3 in size. Tumors were collected and immediately subjected to liquid nitrogen freezing and homogenization. The homogenized tumor samples were stored at −80°C for subsequent western blotting analysis. The drug antitumor efficacy was presented as percentages of TGI of each tested animal, calculated as follows: [1 − (final tumor volume ^treated group – initial tumor volume ^treated group) / (final tumor volume ^vehicle group – initial tumor volume ^vehicle group)] × 100. Body weight of each mouse was also compared to that on the first day of treatment (day 0) and expressed as a percentage of day 0 value. All data points were included for calculation and the values are presented as mean ± SEM. Statistical analysis of the differences between two drug and vehicle treated groups was determined by two-tailed Student’s t-test."}, "AR-V7": {"biological_target": "T1, AR-V7 (Homo sapiens, UniProt P10275)", "T1 construct": "endogenous in cells; host or cells: VCaP, CWR22Rv1", "T1 sequence (P10275 1-644 isoform P10275-3)": "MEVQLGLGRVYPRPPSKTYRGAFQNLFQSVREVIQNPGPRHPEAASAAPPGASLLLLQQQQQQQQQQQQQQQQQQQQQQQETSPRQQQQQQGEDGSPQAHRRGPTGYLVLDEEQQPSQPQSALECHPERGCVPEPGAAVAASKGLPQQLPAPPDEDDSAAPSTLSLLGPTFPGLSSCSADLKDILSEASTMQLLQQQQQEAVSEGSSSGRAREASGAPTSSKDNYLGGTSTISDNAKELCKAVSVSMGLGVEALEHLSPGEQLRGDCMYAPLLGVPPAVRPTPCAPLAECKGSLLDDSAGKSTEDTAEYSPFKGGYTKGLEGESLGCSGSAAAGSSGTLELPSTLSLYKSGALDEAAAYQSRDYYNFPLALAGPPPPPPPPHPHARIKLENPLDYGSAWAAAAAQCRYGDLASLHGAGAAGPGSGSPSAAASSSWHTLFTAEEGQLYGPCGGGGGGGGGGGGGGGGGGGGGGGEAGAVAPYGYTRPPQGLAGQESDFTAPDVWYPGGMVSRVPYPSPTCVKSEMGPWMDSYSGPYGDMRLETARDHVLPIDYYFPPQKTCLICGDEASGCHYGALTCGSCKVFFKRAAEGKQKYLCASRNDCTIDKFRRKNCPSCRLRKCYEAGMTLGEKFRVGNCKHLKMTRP", "assay": "AR-V7 degradation by immunoblotting in CRPC cells", "format": "cell-based", "protocol": "Cell lysis, Western blotting, and AR ubiquitination were performed as described in [17]. Primary antibodies: AR (Millipore 06-680), AR-V7 (RevMAb Biosciences 31-1109-00), PSA (ABclonal A4355), NKX3-1 (Cell Signaling Technology 92998), GAPDH (Cell Signaling Technology 2118) and β-Actin (Sigma-Aldrich A5441).\nFig. 1 ITRI-148 induces degradation of both AR and AR-V7 proteins in CRPC cells. […] (B) Expression of Flag-tagged AR-V7 in 293T cells following ITRI-148 treatment. Cells transiently expressing Flag-AR-V7 were pretreated with 50 μg/mL cycloheximide for 1 hour, then exposed to ITRI-148 at the indicated concentrations for 8 hours. AR-V7 expression was detected using an anti-Flag antibody. (C) Representative immunoblots showing AR protein levels in VCaP and CWR22Rv1 cells after 48 hours of ITRI-148 treatment. An N-terminal AR antibody was used to detect both full-length AR and LBD-truncated variants (AR-V(ΔLBD)) in CWR22Rv1 cells, while AR-V7 was detected using an AR-V7-specific antibody. DC₅₀ values were calculated from normalized band intensities, and Dₘₐₓ represents the maximal degradation achieved at 10 μM ITRI-148. (D) Immunofluorescence staining of AR after 24 or 48 hours of ITRI-148 treatment, detected using an N-terminal AR antibody. […] (F) Western blot analysis of ectopically expressed wild-type (WT) and mutant Myc-tagged AR in DU145 cells following 24 hours of treatment with 10 μM ITRI-148. Quantified AR levels are as indicated. TEXT PRINTED IN THE PICTURE: (C) ITRI-148: DC50 (μM) AR CWR22Rv1: 1.23 ± 1.86; DC50 (μM) AR VCaP: 0.05 ± 0.03; DC50 (μM) AR-V7 CWR22Rv1: 1.20 ± 0.92; DC50 (μM) AR-V7 VCaP: 0.02 ± 0.02; Dmax (%) AR CWR22Rv1: 65.02 ± 19.91; Dmax (%) AR VCaP: 80.49 ± 5.61; Dmax (%) AR-V7 CWR22Rv1: 72.10 ± 3.15; Dmax (%) AR-V7 VCaP: 91.36 ± 2.05"}, "[1]": {"settings": "VCaP, maximal degradation at 10 μM"}},
  "note": "Where two headings read alike, the source gives them in different places.",
  "data": [
    {"molecule": "O=C1CCC(N2C(=O)c3cccc(NCC(=O)N4CCC(N5CCC(C#Cc6ccc(C7CCN(C8=Nn9c(nnc9C(F)(F)F)CC8)CC7)cc6)CC5)CC4)c3C2=O)C(=O)N1", "note": "(stereo not shown) [ITRI-148]", "values": [
      {"measurement": "toxicity reflected by weight-loss of the animals", "setting": "VCaP xenografts; PO 7.5-30 mg/kg BID", "result": "No toxicity reflected by weight-loss of the animals was observed"},
      {"measurement": "tumor growth inhibition (TGI)", "setting": "VCaP xenografts; PO 7.5 mg/kg BID", "result": 49.06, "unit": "%"},
      {"measurement": "tumor growth inhibition (TGI)", "setting": "VCaP xenografts; PO 15 mg/kg BID", "result": 95.08, "unit": "%"},
      {"measurement": "tumor growth inhibition (TGI)", "setting": "VCaP xenografts; PO 30 mg/kg BID, average", "result": 147.07, "unit": "%"},
      {"measurement": "DC50", "setting": "AR-V7; CWR22Rv1, 48 hours, read-out: DC50 AR-V7", "result": "1200 ± 920", "unit": "nM"},
      {"measurement": "Dmax at 10 µM", "setting": "AR-V7; CWR22Rv1, CWR22Rv1, maximal degradation at 10 μM", "result": "72.1 ± 3.15", "unit": "%"},
      {"measurement": "DC50", "setting": "AR-V7; VCaP cells, read-out: half-maximal degradation concentration (DC50) for AR-V7", "result": "~20", "unit": "nM"},
      {"measurement": "DC50", "setting": "AR-V7; VCaP, 48 hours, read-out: DC50 AR-V7", "result": "20 ± 20", "unit": "nM"},
      {"measurement": "Dmax AR-V7", "setting": "AR-V7; [1]", "result": 91, "unit": "%"},
      {"measurement": "Dmax at 10 µM", "setting": "AR-V7; [1]", "result": "91.4 ± 2.05", "unit": "%"}
    ]}
  ]
}
